Results reported in PubChem BioAssay AID222 (DTP/NCI, 2004).
Values joined by “and” are separate entries in the source; they are usually repeats but may differ in a detail not shown here. Equal values may be shown once. Toxic doses and inconclusive results are not listed. Rule for the calls: active = survival T/C of 150% or more; inactive = T/C below 125% in these data.

Test system: C57BL/6 mice, intracerebral ependymoblastoma, median survival T/C
Assay: NCI In Vivo Anticancer Drug Screen. Data for tumor model Ependymoblastoma (intracerebral) in C57BL/6 mice
Details: endpoint: median survival time, higher = longer survival
Experimental: The antitumor activity of compounds was measured in mice bearing transplantable tumors. Survival or tumor size were measured and the results are expressed as the measurement made in the treated group (T) divided by the measurement made in the vehicle treated control group (C). The tumor model used in this assay is Ependymoblastoma (intracerebral) in C57BL/6 mice

[1] = dose: 4.0 mg/kg/injection, schedule: Q01DX005 (ip), vehicle: Klucel (hydroxypropylcellulose) (HPC)
[2] = dose: 8.0 mg/kg/injection, schedule: Q01DX005 (ip), vehicle: Klucel (hydroxypropylcellulose) (HPC)
[3] = dose: 16.0 mg/kg/injection, schedule: Q01DX005 (ip), vehicle: Klucel (hydroxypropylcellulose) (HPC)
[4] = dose: 32.0 mg/kg/injection, schedule: Q01DX005 (ip), vehicle: Klucel (hydroxypropylcellulose) (HPC)
[5] = dose: 64.0 mg/kg/injection, schedule: Q01DX005 (ip), vehicle: Klucel (hydroxypropylcellulose) (HPC)

Measured: T/C

O=C1NC2(CCCCC2)C(=O)N1CCN(CCCl)CCCl
inactive: dose: 0.75 mg/kg/injection, schedule: Q01DX009 (ip), vehicle: Klucel (hydroxypropylcellulose) (HPC) 101 % of control | dose: 1.0 mg/kg/injection, schedule: Q01DX005 (ip), vehicle: Klucel (hydroxypropylcellulose) (HPC) 101 % of control | dose: 1.0 mg/kg/injection, schedule: Q01DX005 (ip), vehicle: saline 105 % of control | dose: 1.5 mg/kg/injection, schedule: Q01DX009 (ip), vehicle: Klucel (hydroxypropylcellulose) (HPC) 100 % of control | dose: 2.0 mg/kg/injection, schedule: Q01DX005 (ip), vehicle: Klucel (hydroxypropylcellulose) (HPC) 105 % of control | dose: 2.0 mg/kg/injection, schedule: Q01DX005 (ip), vehicle: saline 93 % of control and 108 % of control | dose: 3.0 mg/kg/injection, schedule: Q01DX009 (ip), vehicle: Klucel (hydroxypropylcellulose) (HPC) 106 % of control | [1] 102 % of control | dose: 6.25 mg/kg/injection, schedule: Q01DX005 (ip), vehicle: Klucel (hydroxypropylcellulose) (HPC) 119 % of control | [2] 94 % of control and 107 % of control | dose: 12.5 mg/kg/injection, schedule: Q01DX005 (ip), vehicle: Klucel (hydroxypropylcellulose) (HPC) 114 % of control | [3] 97 % of control | dose: 32.0 mg/kg/injection, schedule: Q01DX005 (ip), vehicle: saline 111 % of control

CN(C)CCCNc1c2ccccc2nc2cccc([N+](=O)[O-])c12
inactive: dose: 0.01 mg/kg/injection, schedule: Q## X006 (ip), vehicle: saline 99 % of control | dose: 0.03 mg/kg/injection, schedule: Q01DX001 (ip), vehicle: saline 101 % of control | dose: 0.03 mg/kg/injection, schedule: Q## X006 (ip), vehicle: saline 94 % of control | dose: 0.06 mg/kg/injection, schedule: Q01DX001 (ip), vehicle: saline 92 % of control | dose: 0.06 mg/kg/injection, schedule: Q01DX005 (ip), vehicle: saline 99 % of control and 100 % of control and 102 % of control | dose: 0.06 mg/kg/injection, schedule: Q#A X002 (ip), vehicle: saline 101 % of control and 117 % of control | dose: 0.12 mg/kg/injection, schedule: Q01DX001 (ip), vehicle: saline 92 % of control | dose: 0.12 mg/kg/injection, schedule: Q01DX005 (ip), vehicle: saline 98 % of control | dose: 0.12 mg/kg/injection, schedule: Q#A X002 (ip), vehicle: saline 106 % of control and 111 % of control | dose: 0.13 mg/kg/injection, schedule: Q01DX005 (ip), vehicle: saline 94 % of control | dose: 0.25 mg/kg/injection, schedule: Q01DX001 (ip), vehicle: saline 91 % of control | dose: 0.25 mg/kg/injection, schedule: Q#A X002 (ip), vehicle: saline 88 % of control and 101 % of control | dose: 0.5 mg/kg/injection, schedule: Q01DX001 (oral), vehicle: saline 95 % of control | dose: 0.5 mg/kg/injection, schedule: Q#A X002 (ip), vehicle: saline 94 % of control and 100 % of control | dose: 1.0 mg/kg/injection, schedule: Q01DX001 (oral), vehicle: suspension in saline 100 % of control | dose: 1.0 mg/kg/injection, schedule: Q#A X002 (ip), vehicle: saline 87 % of control and 91 % of control | dose: 2.0 mg/kg/injection, schedule: Q01DX001 (ip), vehicle: saline 89 % of control | dose: 2.0 mg/kg/injection, schedule: Q01DX001 (oral), vehicle: saline 104 % of control | dose: 2.0 mg/kg/injection, schedule: Q01DX001 (oral), vehicle: suspension in saline 100 % of control | dose: 2.0 mg/kg/injection, schedule: Q#A X002 (ip), vehicle: saline 87 % of control | dose: 4.0 mg/kg/injection, schedule: Q01DX001 (ip), vehicle: saline 87 % of control | dose: 4.0 mg/kg/injection, schedule: Q01DX001 (oral), vehicle: suspension in saline 91 % of control | dose: 8.0 mg/kg/injection, schedule: Q01DX001 (oral), vehicle: saline 96 % of control | dose: 8.0 mg/kg/injection, schedule: Q01DX001 (oral), vehicle: suspension in saline 96 % of control | dose: 16.0 mg/kg/injection, schedule: Q01DX001 (oral), vehicle: suspension in saline 91 % of control | dose: 3.9 micrograms/kg/injection, schedule: Q## X006 (ip), vehicle: saline 97 % of control | dose: 7.8 micrograms/kg/injection, schedule: Q01DX005 (ip), vehicle: saline 103 % of control | dose: 7.8 micrograms/kg/injection, schedule: Q## X006 (ip), vehicle: saline 97 % of control | dose: 15.6 micrograms/kg/injection, schedule: Q01DX005 (ip), vehicle: saline 110 % of control | dose: 15.6 micrograms/kg/injection, schedule: Q## X006 (ip), vehicle: saline 92 % of control | dose: 16.0 micrograms/kg/injection, schedule: Q01DX005 (ip), vehicle: saline 102 % of control and 113 % of control | dose: 31.2 micrograms/kg/injection, schedule: Q## X006 (ip), vehicle: saline 95 % of control | dose: 32.0 micrograms/kg/injection, schedule: Q01DX005 (ip), vehicle: saline 104 % of control and 111 % of control | dose: 62.5 micrograms/kg/injection, schedule: Q01DX005 (ip), vehicle: saline 107 % of control and 109 % of control | dose: 62.5 micrograms/kg/injection, schedule: Q## X006 (ip), vehicle: saline 97 % of control | dose: 63.0 micrograms/kg/injection, schedule: Q01DX005 (ip), vehicle: saline 103 % of control and 105 % of control

CCOC(=O)C(C)(C)Oc1ccc(Cl)cc1
inactive: dose: 100.0 mg/kg/injection, schedule: Q01DX005 (ip), vehicle: saline with Tween-80 96 % of control | dose: 200.0 mg/kg/injection, schedule: Q01DX005 (ip), vehicle: saline with Tween-80 93 % of control

O=c1cc[nH]c(=O)[nH]1
inactive: [4] 98 % of control | [5] 98 % of control and 105 % of control | dose: 64.0 mg/kg/injection, schedule: Q01DX005 (ip), vehicle: saline with Tween-80 95 % of control | dose: 128.0 mg/kg/injection, schedule: Q01DX005 (ip), vehicle: Klucel (hydroxypropylcellulose) (HPC) 100 % of control and 108 % of control | dose: 128.0 mg/kg/injection, schedule: Q01DX005 (ip), vehicle: saline with Tween-80 98 % of control | dose: 256.0 mg/kg/injection, schedule: Q01DX005 (ip), vehicle: Klucel (hydroxypropylcellulose) (HPC) 98 % of control and 110 % of control | dose: 256.0 mg/kg/injection, schedule: Q01DX005 (ip), vehicle: saline with Tween-80 94 % of control | dose: 512.0 mg/kg/injection, schedule: Q01DX005 (ip), vehicle: Klucel (hydroxypropylcellulose) (HPC) 96 % of control and 104 % of control | dose: 512.0 mg/kg/injection, schedule: Q01DX005 (ip), vehicle: saline with Tween-80 104 % of control | dose: 1024.0 mg/kg/injection, schedule: Q01DX005 (ip), vehicle: Klucel (hydroxypropylcellulose) (HPC) 109 % of control | dose: 1024.0 mg/kg/injection, schedule: Q01DX005 (ip), vehicle: saline with Tween-80 100 % of control

O=C1C(=O)c2ccccc2C(O)=C1CC=C(Cl)Cl
inactive: [1] 102 % of control and 109 % of control | [2] 100 % of control and 122 % of control | [3] 104 % of control and 113 % of control | [4] 107 % of control and 108 % of control | [5] 101 % of control and 105 % of control

CC[C@]12CN3CCc4c([nH]c5ccccc45)[C@@](C(=O)OC)(c4cc5c(cc4OC)N(C)[C@H]4[C@@](O)(C(=O)OC)[C@H](OC(C)=O)[C@]6(CC)C=CCN7CC[C@]54[C@@H]76)CC(C3)[C@H]1O2 (stereo not given in full)
inactive: dose: 0.05 mg/kg/injection, schedule: Q01DX005 (ip), vehicle: saline 94 % of control | dose: 0.1 mg/kg/injection, schedule: Q01DX005 (ip), vehicle: saline 93 % of control | dose: 0.2 mg/kg/injection, schedule: Q01DX005 (ip), vehicle: saline 93 % of control | dose: 0.4 mg/kg/injection, schedule: Q01DX005 (ip), vehicle: saline 108 % of control | dose: 0.8 mg/kg/injection, schedule: Q01DX005 (ip), vehicle: saline 103 % of control | dose: 1.6 mg/kg/injection, schedule: Q01DX005 (ip), vehicle: saline 103 % of control | dose: 3.2 mg/kg/injection, schedule: Q01DX005 (ip), vehicle: saline 113 % of control | dose: 6.4 mg/kg/injection, schedule: Q01DX005 (ip), vehicle: saline 103 % of control | dose: 12.8 mg/kg/injection, schedule: Q01DX005 (ip), vehicle: saline 103 % of control

CN(N=O)C(N)=O
inactive: dose: 2.5 mg/kg/injection, schedule: Q01DX001 (ip), vehicle: Klucel (hydroxypropylcellulose) (HPC) 120 % of control | dose: 5.0 mg/kg/injection, schedule: Q01DX001 (ip), vehicle: Klucel (hydroxypropylcellulose) (HPC) 124 % of control | dose: 80.0 mg/kg/injection, schedule: Q01DX001 (ip), vehicle: Klucel (hydroxypropylcellulose) (HPC) 97 % of control

Cc1c2ccncc2c(C)c2c1[nH]c1ccccc12
inactive: dose: 128.0 mg/kg/injection, schedule: Q01DX001 (ip), vehicle: Klucel (hydroxypropylcellulose) (HPC) 103 % of control
